The target of assay [1] is T1, BRG1 (Homo sapiens, UniProt P51532).
T1 construct: either BRM primary antibody (Cell signaling Cat #11966) or BRG primary antibody (Abcam, ab 110641); endogenous in cells; host or cells: SW1573
The assay is described as follows: Immunofluorescence assay for BRG1 degradation in SW1573 cells. As to conditions: 20 hours incubation; for DC50: immunofluorescence mean nuclear signal, read-out: BRG1 IF Degradation IC50; for Dmax: SW1573, 20 h, normalized to a known degrader control, read-out: BRG1 IF Degradation Sinf (%). It counts as cell-based. In a few lines: (§1)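 Read-out is per-cell mean nuclear BRM or BRG1 immunofluorescence, imaged after 20 h compound exposure of SW1573 cells and normalized to a known degrader control. Concentration-response curves, fit with a floating maximum, yield degradation IC50 and Dmax.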

Assay [2] has as its target BRM (Homo sapiens, UniProt P51531). Kind of assay: Immunofluorescence assay for BRM degradation in SW1573 cells. In kind it is cell-based. Further details: treated overnight at 4° C. with either BRM primary antibody (Cell signaling Cat #11966) or BRG primary antibody; endogenous in cells; host or cells: SW1573. The note with it: 20 hours incubation; for DC50: immunofluorescence mean nuclear signal, read-out: BRM IF Degradation IC50; for BRM IF Degradation Sinf (%): normalized to a known degrader control. The method, boiled down: as §1

Experimental findings from patent publication US11993599B2, “Therapeutic compounds” (Genentech, Inc., priority 2021, dated 2024) are described below.

Chain of BRM (P51531 whole entry): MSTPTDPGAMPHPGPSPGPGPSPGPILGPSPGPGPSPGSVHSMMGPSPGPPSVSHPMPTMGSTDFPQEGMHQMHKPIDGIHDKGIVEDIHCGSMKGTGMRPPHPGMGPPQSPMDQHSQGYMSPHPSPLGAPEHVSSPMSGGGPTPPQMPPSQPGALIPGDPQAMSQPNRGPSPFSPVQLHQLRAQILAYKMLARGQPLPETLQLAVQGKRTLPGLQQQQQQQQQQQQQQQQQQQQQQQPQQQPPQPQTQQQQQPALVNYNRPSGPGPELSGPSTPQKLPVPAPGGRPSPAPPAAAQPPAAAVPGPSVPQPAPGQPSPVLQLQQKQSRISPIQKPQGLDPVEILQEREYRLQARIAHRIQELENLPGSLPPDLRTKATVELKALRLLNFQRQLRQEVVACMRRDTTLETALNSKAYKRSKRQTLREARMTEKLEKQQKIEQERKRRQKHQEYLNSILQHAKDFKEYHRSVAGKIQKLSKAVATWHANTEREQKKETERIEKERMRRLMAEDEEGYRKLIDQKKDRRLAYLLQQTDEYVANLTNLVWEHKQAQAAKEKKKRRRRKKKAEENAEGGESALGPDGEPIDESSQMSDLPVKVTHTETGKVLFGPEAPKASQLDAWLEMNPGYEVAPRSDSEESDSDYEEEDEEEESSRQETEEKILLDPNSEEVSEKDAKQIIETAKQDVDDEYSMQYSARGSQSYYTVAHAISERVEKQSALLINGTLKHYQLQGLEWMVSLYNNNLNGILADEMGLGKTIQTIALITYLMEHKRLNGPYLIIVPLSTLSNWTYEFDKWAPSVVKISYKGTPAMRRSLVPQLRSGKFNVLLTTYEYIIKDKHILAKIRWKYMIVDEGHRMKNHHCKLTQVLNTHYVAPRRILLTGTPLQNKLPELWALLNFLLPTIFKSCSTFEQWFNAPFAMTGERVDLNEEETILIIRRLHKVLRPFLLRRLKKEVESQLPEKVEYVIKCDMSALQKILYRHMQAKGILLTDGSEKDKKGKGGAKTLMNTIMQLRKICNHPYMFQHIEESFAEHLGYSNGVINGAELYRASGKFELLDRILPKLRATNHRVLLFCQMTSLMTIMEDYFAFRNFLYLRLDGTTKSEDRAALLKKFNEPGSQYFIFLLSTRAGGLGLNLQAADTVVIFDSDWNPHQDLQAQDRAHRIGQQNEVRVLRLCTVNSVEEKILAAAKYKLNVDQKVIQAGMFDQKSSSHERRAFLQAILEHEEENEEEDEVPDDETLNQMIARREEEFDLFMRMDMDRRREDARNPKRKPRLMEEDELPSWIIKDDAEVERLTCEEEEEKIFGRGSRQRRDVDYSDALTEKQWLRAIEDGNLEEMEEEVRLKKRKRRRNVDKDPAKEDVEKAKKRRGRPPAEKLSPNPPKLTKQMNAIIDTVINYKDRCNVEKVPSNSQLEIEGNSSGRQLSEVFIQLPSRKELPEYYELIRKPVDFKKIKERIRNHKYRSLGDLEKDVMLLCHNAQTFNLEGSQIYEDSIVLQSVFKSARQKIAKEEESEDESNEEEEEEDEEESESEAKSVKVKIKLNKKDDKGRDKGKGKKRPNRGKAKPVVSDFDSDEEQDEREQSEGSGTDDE
T1 sequence (P51532 whole entry): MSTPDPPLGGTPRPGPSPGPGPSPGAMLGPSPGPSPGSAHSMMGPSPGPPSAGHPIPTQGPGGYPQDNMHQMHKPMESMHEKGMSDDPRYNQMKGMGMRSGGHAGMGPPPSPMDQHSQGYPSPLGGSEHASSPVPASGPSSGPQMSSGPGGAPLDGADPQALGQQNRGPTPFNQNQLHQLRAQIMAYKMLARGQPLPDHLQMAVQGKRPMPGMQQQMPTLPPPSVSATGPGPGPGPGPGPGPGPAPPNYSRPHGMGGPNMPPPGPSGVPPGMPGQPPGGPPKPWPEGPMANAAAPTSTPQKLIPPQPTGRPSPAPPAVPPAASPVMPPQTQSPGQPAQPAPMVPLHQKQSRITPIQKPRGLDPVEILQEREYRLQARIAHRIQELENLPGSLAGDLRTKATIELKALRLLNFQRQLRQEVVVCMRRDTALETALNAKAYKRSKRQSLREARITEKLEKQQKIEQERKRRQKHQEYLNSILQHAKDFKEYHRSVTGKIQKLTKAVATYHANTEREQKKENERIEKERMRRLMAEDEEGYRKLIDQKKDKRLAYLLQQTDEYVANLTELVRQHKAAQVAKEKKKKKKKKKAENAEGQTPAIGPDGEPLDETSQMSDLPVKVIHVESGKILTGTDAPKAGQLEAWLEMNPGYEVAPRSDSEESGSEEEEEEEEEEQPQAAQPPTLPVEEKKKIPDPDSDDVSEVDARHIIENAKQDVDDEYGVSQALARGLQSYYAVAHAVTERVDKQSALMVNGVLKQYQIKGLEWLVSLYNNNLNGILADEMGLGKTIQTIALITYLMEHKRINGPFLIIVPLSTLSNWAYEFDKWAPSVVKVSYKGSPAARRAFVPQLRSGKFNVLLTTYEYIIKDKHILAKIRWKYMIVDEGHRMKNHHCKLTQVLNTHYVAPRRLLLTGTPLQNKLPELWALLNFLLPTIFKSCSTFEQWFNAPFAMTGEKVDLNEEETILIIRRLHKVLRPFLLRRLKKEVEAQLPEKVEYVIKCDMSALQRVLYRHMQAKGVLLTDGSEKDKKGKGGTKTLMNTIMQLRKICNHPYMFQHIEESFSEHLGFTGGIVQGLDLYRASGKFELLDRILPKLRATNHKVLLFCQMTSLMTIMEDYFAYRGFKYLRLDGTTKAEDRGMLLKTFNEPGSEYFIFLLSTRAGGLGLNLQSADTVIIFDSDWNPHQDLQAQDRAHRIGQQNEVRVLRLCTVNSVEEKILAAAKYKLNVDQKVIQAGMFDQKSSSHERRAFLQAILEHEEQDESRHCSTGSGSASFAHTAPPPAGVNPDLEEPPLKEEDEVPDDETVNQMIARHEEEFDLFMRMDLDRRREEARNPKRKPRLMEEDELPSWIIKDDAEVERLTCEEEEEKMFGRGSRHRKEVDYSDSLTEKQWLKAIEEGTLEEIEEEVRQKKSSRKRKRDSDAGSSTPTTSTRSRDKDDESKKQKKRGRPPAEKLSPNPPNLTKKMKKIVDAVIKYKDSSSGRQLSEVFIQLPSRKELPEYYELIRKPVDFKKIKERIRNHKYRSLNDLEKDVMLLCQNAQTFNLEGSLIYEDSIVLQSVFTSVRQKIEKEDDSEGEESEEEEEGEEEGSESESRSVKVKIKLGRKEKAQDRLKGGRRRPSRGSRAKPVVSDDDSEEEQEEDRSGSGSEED

For `COC(=O)C1CCS(=O)(=O)C12CN(CC#Cc1cc(N3C4CCC3CN(c3cc(-c5ccccc5O)nnc3N)C4)ccn1)C2` (centres unmarked) [Compound 183, methyl 2-[3-[4-[3-[3-amino-6-(2-hydroxyphenyl)pyridazin-4-yl]-3,8-diazabicyclo[3.2.1]octan-8-yl]-2-pyridyl]prop-2-ynyl]-5,5-dioxo-51ambda6-thia-2-azaspiro[3.4]octane-8-carboxylate], in assay [1], the DC50 is greater than 100 nM. Further, in assay [2], the DC50 was greater than 100 nM and the “BRM IF Degradation Sinf (%)” value is given as “E (E indicates −30%-−70%)”.

Regarding `CC1CCN1CC#Cc1cc(N2C3CCC2CN(c2cc(-c4ccccc4O)nnc2N)C3)ccn1` (centres unmarked) [Compound 184, 2-[6-amino-5-[8-[2-[3-(2-methylazetidin-1-yl)prop-1-ynyl]-4-pyridyl]-3,8-diazabicyclo[3.2.1]octan-3-yl]pyridazin-3-yl]phenol], in assay [1], the DC50 is less than 10 nM and the Dmax lay within 30 to 70%. In assay [2], the DC50 is less than 10 nM and the “BRM IF Degradation Sinf (%)” value was “E (E indicates −30%-−70%)”.

Take `Nc1nnc(-c2ccccc2O)cc1N1CC2CCC(C1)N2c1ccnc(C#CCN2CC3(CC(O)C3)C2)c1` [Compound 185, 2-[3-[4-[3-[3-amino-6-(2-hydroxyphenyl)pyridazin-4-yl]-3,8-diazabicyclo[3.2.1]octan-8-yl]-2-pyridyl]prop-2-ynyl]-2-azaspiro[3.3]heptan-6-ol]: in assay [1], the DC50 lay within 10 to 100 nM and the Dmax was 30 to 70%. In assay [2], the DC50 was greater than 100 nM and the “BRM IF Degradation Sinf (%)” value is on record as “F (F indicates −71%-−120%)”.

For `COC[C@@H]1CCN1CC#Cc1cc(N2C3CCC2CN(c2cc(-c4ccccc4O)nnc2N)C3)ccn1` [Compound 186, 2-[6-amino-5-[8-[2-[3-[(2S)-2-(methoxymethyl)azetidin-1-yl]prop-1-ynyl]-4-pyridyl]-3,8-diazabicyclo[3.2.1]octan-3-yl]pyridazin-3-yl]phenol], in assay [1], the DC50 is 10 to 100 nM and the Dmax is 30 to 70%. Moreover, in assay [2], the DC50 is less than 10 nM and the “BRM IF Degradation Sinf (%)” value was “E (E indicates −30%-−70%)”.

`CC1(C)CCN1CC#Cc1cc(N2C3CCC2CN(c2cc(-c4ccccc4O)nnc2N)C3)ccn1` [Compound 187, 2-[6-amino-5-[8-[2-[3-(2,2-dimethylazetidin-1-yl)prop-1-ynyl]-4-pyridyl]-3,8-diazabicyclo[3.2.1]octan-3-yl]pyridazin-3-yl]phenol]: in assay [1], the DC50 is less than 10 nM and the Dmax is 30 to 70%. Besides, in assay [2], the DC50 was less than 10 nM and the “BRM IF Degradation Sinf (%)” value is given as “E (E indicates −30%-−70%)”.

Turning to `CN1CCOC2(C1)CN(CC#Cc1cc(N3C4CCC3CN(c3cc(-c5ccccc5O)nnc3N)C4)ccn1)C2` [Compound 188, 2-[6-amino-5-[8-[2-[3-(8-methyl-5-oxa-2,8-diazaspiro[3.5]nonan-2-yl)prop-1-ynyl]-4-pyridyl]-3,8-diazabicyclo[3.2.1]octan-3-yl]pyridazin-3-yl]phenol], the DC50 in assay [1] was greater than 100 nM. Moreover, in assay [2], the DC50 is greater than 100 nM and the “BRM IF Degradation Sinf (%)” value is reported as “E (E indicates −30%-−70%)”.

Take `Nc1nnc(-c2ccccc2O)cc1N1CC2CCC(C1)N2c1ccnc(C#CCN2CCCC(F)(F)CC2)c1` [Compound 189, 2-[6-amino-5-[8-[2-[3-(4,4-difluoroazepan-1-yl)prop-1-ynyl]-4-pyridyl]-3,8-diazabicyclo[3.2.1]octan-3-yl]pyridazin-3-yl]phenol]: in assay [1], the DC50 is less than 10 nM and the Dmax lay in the range of 30 to 70%. In assay [2], the DC50 is less than 10 nM and the “BRM IF Degradation Sinf (%)” value is “F (F indicates −71%-−120%)”.

Take `CC1CCN(CC#Cc2cc(N3C4CCC3CN(c3cc(-c5ccccc5O)nnc3N)C4)ccn2)CCC1O` (centres unmarked) [Compound 190, 1-[3-[4-[3-[3-amino-6-(2-hydroxyphenyl)pyridazin-4-yl]-3,8-diazabicyclo[3.2.1]octan-8-yl]-2-pyridyl]prop-2-ynyl]-5-methyl-azepan-4-ol]: in assay [1], the DC50 was less than 10 nM and the Dmax was in the range of 30 to 70%. Further, in assay [2], the DC50 was less than 10 nM and the “BRM IF Degradation Sinf (%)” value is “F (F indicates −71%-−120%)”.

For `Nc1nnc(-c2ccccc2O)cc1N1CC2CCC(C1)N2c1ccnc(C#CCN2CCCC(O)CC2)c1` (centres unmarked) [Compound 191, 1-[3-[4-[3-[3-amino-6-(2-hydroxyphenyl)pyridazin-4-yl]-3,8-diazabicyclo[3.2.1]octan-8-yl]-2-pyridyl]prop-2-ynyl]azepan-4-ol], in assay [1], the DC50 was less than 10 nM and the Dmax lay in the range of 71 to 120%. In assay [2], the DC50 was less than 10 nM and the “BRM IF Degradation Sinf (%)” value is on record as “F (F indicates −71%-−120%)”.

Consider `CC1CCCCN(CC#Cc2cc(N3C4CCC3CN(c3cc(-c5ccccc5O)nnc3N)C4)ccn2)C1` (centres unmarked) [Compound 192, 2-[6-amino-5-[8-[2-[3-(3-methylazepan-1-yl)prop-1-ynyl]-4-pyridyl]-3,8-diazabicyclo[3.2.1]octan-3-yl]pyridazin-3-yl]phenol], for which, in assay [1], the DC50 was less than 10 nM and the Dmax lay within 71 to 120%. In assay [2], the DC50 was less than 10 nM and the “BRM IF Degradation Sinf (%)” value is listed as “F (F indicates −71%-−120%)”.

As to `Nc1nnc(-c2ccccc2O)cc1N1CC2CCC(C1)N2c1ccnc(C#CCN2CCCC(F)CC2)c1` (centres unmarked) [Compound 193, 2-[6-amino-5-[8-[2-[3-(4-fluoroazepan-1-yl)prop-1-ynyl]-4-pyridyl]-3,8-diazabicyclo[3.2.1]octan-3-yl]pyridazin-3-yl]phenol], in assay [1], the DC50 is less than 10 nM and the Dmax was in the range of 71 to 120%. For the same compound, in assay [2], the DC50 is less than 10 nM and the “BRM IF Degradation Sinf (%)” value was “F (F indicates −71%-−120%)”.

For `Nc1nnc(-c2ccccc2O)cc1N1CC2CCC(C1)N2c1ccnc(C#CCN2CCCCC(F)C2)c1` (centres unmarked) [Compound 194, 2-[6-amino-5-[8-[2-[3-(3-fluoroazepan-1-yl)prop-1-ynyl]-4-pyridyl]-3,8-diazabicyclo[3.2.1]octan-3-yl]pyridazin-3-yl]phenol], in assay [1], the DC50 was less than 10 nM and the Dmax lay in the range of 30 to 70%. Moreover, in assay [2], the DC50 is less than 10 nM and the “BRM IF Degradation Sinf (%)” value is on record as “F (F indicates −71%-−120%)”.

In the case of `CC1CCCN(CC#Cc2cc(N3C4CCC3CN(c3cc(-c5ccccc5O)nnc3N)C4)ccn2)CC1C` (centres unmarked) [Compound 195, 2-[6-amino-5-[8-[2-[3-(3,4-dimethylazepan-1-yl)prop-1-ynyl]-4-pyridyl]-3,8-diazabicyclo[3.2.1]octan-3-yl]pyridazin-3-yl]phenol], in assay [1], the DC50 was less than 10 nM and the Dmax fell in the range of 30 to 70%. For the same compound, in assay [2], the DC50 is less than 10 nM and the “BRM IF Degradation Sinf (%)” value is reported as “F (F indicates −71%-−120%)”.

For the compound `CC1CN(CC#Cc2cc(N3C4CCC3CN(c3cc(-c5ccccc5O)nnc3N)C4)ccn2)CCCC1O` (centres unmarked) [Compound 196, 1-[3-[4-[3-[3-amino-6-(2-hydroxyphenyl)pyridazin-4-yl]-3,8-diazabicyclo[3.2.1]octan-8-yl]-2-pyridyl]prop-2-ynyl]-3-methyl-azepan-4-ol], in assay [1], the DC50 was less than 10 nM and the Dmax lay within 71 to 120%. Besides, in assay [2], the DC50 was less than 10 nM and the “BRM IF Degradation Sinf (%)” value is recorded as “F (F indicates −71%-−120%)”.

On to `CC1(CO)CCCN(CC#Cc2cc(N3C4CCC3CN(c3cc(-c5ccccc5O)nnc3N)C4)ccn2)CC1` (centres unmarked) [Compound 197, 2-[6-amino-5-[8-[2-[3-[4-(hydroxymethyl)-4-methyl-azepan-1-yl]prop-1-ynyl]-4-pyridyl]-3,8-diazabicyclo[3.2.1]octan-3-yl]pyridazin-3-yl]phenol], for which, in assay [1], the DC50 was less than 10 nM and the Dmax was 30 to 70%. In addition, in assay [2], the DC50 was less than 10 nM and the “BRM IF Degradation Sinf (%)” value is listed as “F (F indicates −71%-−120%)”.

Regarding `Nc1nnc(-c2ccccc2O)cc1N1CC2CCC(C1)N2c1ccnc(C#CCN2CCCC(F)(F)C(F)C2)c1` (centres unmarked) [Compound 199, 2-[6-amino-5-[8-[2-[3-(3,4,4-trifluoroazepan-1-yl)prop-1-ynyl]-4-pyridyl]-3,8-diazabicyclo[3.2.1]octan-3-yl]pyridazin-3-yl]phenol], in assay [1], the DC50 was in the range of 10 to 100 nM and the Dmax lay within 30 to 70%. Besides, in assay [2], the DC50 was less than 10 nM and the “BRM IF Degradation Sinf (%)” value is on record as “F (F indicates −71%-−120%)”.

In the case of `CC1CCCN(CC#Cc2cc(N3C4CCC3CN(c3cc(-c5ccccc5O)nnc3N)C4)ccn2)CC1` (centres unmarked) [Compound 200, 2-[6-amino-5-[8-[2-[3-(4-methylazepan-1-yl)prop-1-ynyl]-4-pyridyl]-3,8-diazabicyclo[3.2.1]octan-3-yl]pyridazin-3-yl]phenol], in assay [1], the DC50 is less than 10 nM and the Dmax was 71 to 120%. In assay [2], the DC50 was less than 10 nM and the “BRM IF Degradation Sinf (%)” value is reported as “F (F indicates −71%-−120%)”.

As to `CC1CCCCCN1CC#Cc1cc(N2C3CCC2CN(c2cc(-c4ccccc4O)nnc2N)C3)ccn1` (centres unmarked) [Compound 201, 2-[6-amino-5-[8-[2-[3-(2-methylazepan-1-yl)prop-1-ynyl]-4-pyridyl]-3,8-diazabicyclo[3.2.1]octan-3-yl]pyridazin-3-yl]phenol], in assay [1], the DC50 is less than 10 nM and the Dmax lay within 30 to 70%. Moreover, in assay [2], the DC50 was less than 10 nM and the “BRM IF Degradation Sinf (%)” value is “F (F indicates −71%-−120%)”.

`Nc1nnc(-c2ccccc2O)cc1N1CC2CCC(C1)N2c1ccnc(C#CCN2CCc3ccccc3CC2)c1` [Compound 202, 2-[6-amino-5-[8-[2-[3-(1,2,4,5-tetrahydro-3-benzazepin-3-yl)prop-1-ynyl]-4-pyridyl]-3,8-diazabicyclo[3.2.1]octan-3-yl]pyridazin-3-yl]phenol]: in assay [1], the DC50 was in the range of 10 to 100 nM and the Dmax lay in the range of 30 to 70%. In assay [2], the DC50 lay in the range of 10 to 100 nM and the “BRM IF Degradation Sinf (%)” value is “E (E indicates −30%-−70%)”.
